Assay results from patent US20240114902A1, “COMPOSITIONS AND METHODS FOR DETERRING OVIPOSITION BY FRUIT FLIES” (The United States of America, as represented by The …, priority 2022, published 2024).

How the values were obtained:
[1] = system: melon fly (Zeugodacus cucurbitae); test: Additional fatty acids: melon fly two-choice oviposition bioassay on pumpkin juice agar; assay type: in vivo; conditions: 20 mg, 24 hours
Method: (§1) Oviposition bioassays were conducted using laboratory two-choice cage experiments with pumpkin juice-infused agar (for Melon fly) and guava juice-infused agar (for OFF) as oviposition substrate. The agar plates were prepared by pouring 10 mL of boiled agar mixture [1000 mL distilled water, 500 mL pumpkin or guava juice, 10 g agar, 0.6 g methylparaben, 6.7 mL 95% ethanol, and 3 mL acetic acid] into a small petri dish (60 mm×15 mm). The agar was then covered with a lid to avoid desiccation. The two-choice oviposition bioassay was conducted in screened cages using 20 mated melon fly or OFF females per cage (14-18 day-old; Jang et al.; Supra) over 24 hours. Each cage was provided with a ball of water-saturated cotton and sugar+protein hydrolysate mixture in separate 30 mL deli cups, and two agar plates-one treated with one of the test compounds (C4:0 (Butyric acid), C5:0 (Valeric acid), C6:0 (Caproic acid), C7:0 (Enanthic acid), C9:0 (Pelargonic acid), C11:0 (Undecylic acid), C13:0 (Tridecylic acid), C15:0 (Pentadecylic acid), C17:0 (Margaric acid), or C19:0 (Nonadecylic acid)) diluted in ethanol and the other treated with the ethanol which served as a control. The agar plates were surface-treated either with 200 μL of ethanol (control) or 200 μL of one of tested compounds diluted at 20 mg/200 μL of ethanol, placed into a fume hood for 10 minutes to evaporate solvents prior to be used in bioassays, and positioned upside-down (i.e. treated side down) on the center of the outside top of the screened cage 17 cm apart from each other (i.e. one each of control and treated), allowing female flies to oviposit on pumpkin (for melon fly) or guava juice (for OFF) agar from the bottom through the cage screen. After 24 hours, melon fly and OFF eggs in the agar were gently separated from the agar in water and the number of eggs were individually counted. The experiment was replicated five times per treatment.

oriental fruit fly (OFF) = test: Additional fatty acids: OFF two-choice oviposition bioassay on guava juice agar, 24 hours; assay type: in vivo, Bactrocera dorsalis; conditions: individual compound, 20 mg dose
Method: as §1

Bactrocera dorsalis = test: B. dorsalis spatial deterrence, two-choice traps baited with guava juice; assay type: in vivo; conditions: tested individually
Method: In addition to CFA, a series of odd-numbered carbon fatty acids (C9:0 to C17:0) and fatty acid methyl esters were evaluated for the spatial deterrence to B. dorsalis that results in oviposition reduction. Table 3 below lists the fatty acid methyl esters tested for spatial repellency for Bactrocera dorsalis. […] FIG. 16A, FIG. 16C, FIG. 16E, FIG. 16G, FIG. 16I, FIG. 16K, FIG. 16M, FIG. 16O, FIG. 16Q, and FIG. 16S show the mean numbers (±SEM) of mated female B. dorsalis flies captured, and FIG. 16B, FIG. 16D, FIG. 16F, FIG. 16H, FIG. 16J, FIG. 16L, FIG. 16N, FIG. 16P, FIG. 16R, and FIG. 16T show the number of B. dorsalis eggs oviposited in traps baited with guava juice (control) and with guava juice plus one of the coconut fatty acid methyl ester compounds in two-choice bioassays. For each test, different letter on the bar indicate a significant difference by Tukey-Kramer tests at P<0.05, n=4.

Zeugodacus cucurbitae = test: Spatial repellency of fatty acid methyl esters, two-choice traps with pumpkin juice; assay type: in vivo; conditions: 100 μL doses
Excerpt: The methods used to test the repellency of fatty acid methyl esters for OFF described above were used in this Example, with minor modifications. The only difference was that pumpkin juice was used as attractant in traps. Melon flies used in this study were from melon fly colony at the U.S Pacific Basin Agricultural Research Center in Hilo, Hawaii, which were maintained on a standard larval diet containing wheat, sugar, and yeast (Tanaka at al., Supra). Chemicals tested were C8:0ME (Methyl octanoate), C10:0ME (Methyl decanoate), C12:0ME (Methyl laurate), C14:0ME (Methyl tetradecanoate), C16:0ME (Methyl palmitate), C18:0ME (Methyl stearate), C18:1ME (Methyl Oleate), and C18:2 (Methyl linoleate).

[2] = system: Bactrocera dorsalis (OFF); test: OFF two-choice cage oviposition bioassay on guava juice-infused agar; assay type: in vivo; conditions: individual compound, 20 mg/agar
Method: Evaluation of oviposition deterrence of CFA: OFF oviposition bioassays were conducted using laboratory two-choice cage experiments with guava juice-infused agar as an oviposition substrate. The agar plates were prepared by pouring 30 mL of boiled agar mixture [1000 mL distilled water, 500 mL guava juice (Deans Foods, El Paso, Texas, USA), 10 g agar, 0.6 g methylparaben, 6.7 mL 95% ethanol, and 3 mL acetic acid] into a 30 mL deli plastic cup to gel. The agar was then covered with a lid to avoid desiccation. The two-choice oviposition bioassay was conducted in screened cages using 20 mated OFF females per cage (12-18 day-old; Jang E B et al., 1997, “Attraction of female oriental fruit fly, Bactrocera dorsalis, to volatile semiochemicals from leaves and extracts of a non-host plant, Panax (Polyscias guilfoylei) in laboratory and olfactometer assays,” J. Chem. Ecol. 23:1389-1401) over 3 days. Each cage was provided with a ball of water-saturated cotton, sugar, and protein hydrolysate in separate 30 mL deli cups and two guava juice agar plates-one treated with CFA diluted in hexane and the other treated with the hexane control. The agar plates were surface-treated either with 200 μL of hexane or 200 μL of CFA in one of 4 doses tested (20, 2, 0.2, and 0.02 mg/200 μL of hexane), placed into a fume hood for 10 minutes prior to use in bioassays, and positioned upside-down (i.e., treated side down) on the center of the outside top of the screened cage 17 cm apart from each other (i.e., one each of control and CFA treated), allowing female flies to oviposit on guava juice agar from the bottom through the cage screen. After three days, OFF eggs in the guava agar were gently separated from the agar in water and the number of eggs were individually counted (up to 100 eggs) or estimated volumetrically at 1 mL OFF eggs=20,000 eggs (Stephanie Gayle personal communication). The experiment was replicated six times per treatment. Determination of bioactive oviposition deterrent components from CFA: A series of bioassays was conducted to identify key deterrent components of CFA for OFF using the same two-choice bioassay design described above. […] Ethanol was used as control and for preparing dilutions of C16:0 and C18:0. Hexane was used as control and for dilutions of the other six compounds tested. Based on the outcome of these bioassays, the eight free fatty acid components were assigned to “OFF negative” (i.e., oviposition reduced), “OFF neutral” (i.e., no effect on oviposition), and “OFF positive” (i.e., oviposition increased) compound groups. Using these groupings, four different blends were formulated (indicated in Table 1), composed at the equivalent ratios and concentrations of each component found in CFA (Zhu J J et al., 2018, supra), to determine key bioactive CFA components in terms of oviposition deterrence on OFF. The approach involved testing the bioactivity of the OFF negative-component blend (4c blend) for oviposition deterrence at three different doses (2, 0.2, and 0.02 mg CFA equivalent/agar), first comparing with hexane control, then with CFA at respective equivalent doses. As the 4c blend was not as effective as CFA, a “OFF negative+OFF neutral” component blend (6c blend) was then formulated, and its effect compared with CFA at 2 and 0.2 mg CFA equivalent/agar. Two subtraction blends with one of the two OFF neutral components removed from the 6c blend (5c-i and 5c-ii blends) were formulated and compared with the 6c blend at 2 and 0.2 mg CFA equivalent/agar. The experiment was replicated four to six times per treatment.

Compound: CCCCCC(=O)O [C6:0, Caproic acid]
- effect on melon fly oviposition vs control [1]: increased melon fly oviposition
- effect on OFF oviposition (oriental fruit fly (OFF)): did not affect OFF oviposition

Compound: CCCCCCCCCCCCCCCCC(=O)O [C17:0, Margaric acid]
- effect on melon fly oviposition vs control [1]: increased melon fly oviposition

Compound: CCCCCCCCCCCC(=O)OC [C12:0 ME, Methyl laurate]
- effect on female B. dorsalis attraction and oviposition to host fruit odors (Bactrocera dorsalis): significantly reduced
- fewer Z. cucurbitae captured in traps baited with FAME vs control (Zeugodacus cucurbitae): 55.5%

Compound: CCCCCCCCCCCCC(=O)O [C13:0, Tridecylic acid]
- effect on OFF oviposition vs control agar [2]: significantly reduced
- fewer melon fly eggs on treated pumpkin juice agar vs control agar [1]: 75.7%

Compound: CCCCCCCC/C=C\CCCCCCCC(=O)OC [C18:1ME, Methyl Oleate]
- fewer Z. cucurbitae captured in traps baited with FAME vs control (Zeugodacus cucurbitae): 91.8%

Compound: CCCCCCC(=O)O [C7:0, Enanthic acid]
- effect on female B. dorsalis attraction and oviposition to host fruit odors (Bactrocera dorsalis): significantly reduced
- effect on melon fly oviposition vs control [1]: increased melon fly oviposition
- effect on OFF oviposition (oriental fruit fly (OFF)): did not affect OFF oviposition

Compound: CCCCCCCC(=O)OC [C8:0 ME, Methyl caprylate]
- effect on female B. dorsalis attraction and oviposition to host fruit odors (Bactrocera dorsalis): significantly reduced
- fewer Z. cucurbitae captured in traps baited with FAME vs control (Zeugodacus cucurbitae): 97.1%

Compound: CCCC(=O)O [C4:0, Butyric acid]
- effect on melon fly oviposition vs control [1]: did not affect melon fly oviposition
- effect on OFF oviposition (oriental fruit fly (OFF)): did not affect OFF oviposition

Compound: CCCCC(=O)O [C5:0, Valeric acid]
- fewer melon fly eggs on treated pumpkin juice agar vs control agar [1]: 72.5%
- effect on OFF oviposition (oriental fruit fly (OFF)): did not affect OFF oviposition

Compound: CCCCCCCCC(=O)O [C9:0, Pelargonic acid]
- effect on OFF oviposition vs control agar [2]: significantly reduced
- effect on female B. dorsalis attraction and oviposition to host fruit odors (Bactrocera dorsalis): significantly reduced
- effect on melon fly oviposition vs control [1]: did not affect melon fly oviposition

Compound: CCCCC/C=C\C/C=C\CCCCCCCC(=O)OC [C18:2ME, Methyl linoleate]
- effect on melon fly behavior (Zeugodacus cucurbitae): did not affect melon fly behavior

Compound: CCCCCCCCCCCCC(=O)OC [C13:0 ME, Methyl tridecanoate]
- effect on female B. dorsalis attraction and oviposition to host fruit odors (Bactrocera dorsalis): significantly reduced

Compound: CCCCCCCCCCCCCCC(=O)O [C15:0, Pentadecylic acid]
- effect on melon fly oviposition vs control [1]: increased melon fly oviposition

Compound: CCCCCCCCCCCCCCCCCC(=O)OC [C18:0ME, Methyl stearate]
- effect on melon fly behavior (Zeugodacus cucurbitae): did not affect melon fly behavior

Compound: CCCCCCCCC(=O)OC [C9:0 ME, Methyl pelargonate]
- effect on female B. dorsalis attraction and oviposition to host fruit odors (Bactrocera dorsalis): significantly reduced

Compound: CCCCCCCCCCCCCCCC(=O)OC [C16:0 ME, Methyl palmitate]
- effect on melon fly behavior (Zeugodacus cucurbitae): did not affect melon fly behavior

Compound: CCCCCCCCCCCCCCC(=O)OC [C15:0 ME, Methyl pentadecanoate]
- effect on female B. dorsalis attraction and oviposition to host fruit odors (Bactrocera dorsalis): significantly reduced

Compound: CCCCCCCCCC(=O)OC [C10:0 ME, Methyl caprate]
- effect on female B. dorsalis attraction and oviposition to host fruit odors (Bactrocera dorsalis): significantly reduced
- fewer Z. cucurbitae captured in traps baited with FAME vs control (Zeugodacus cucurbitae): 76.0%

Compound: CCCCCCCCCCCCCCCCCCC(=O)O [C19:0, Nonadecylic acid]
- effect on melon fly oviposition vs control [1]: did not affect melon fly oviposition

Compound: CCCCCCCCCCCCCC(=O)OC [C14:0 ME, Methyl myristate]
- effect on melon fly behavior (Zeugodacus cucurbitae): did not affect melon fly behavior
